Legend:
rats [1] = test: Ethanol operant self-administration after systemic ibogaine; format: in vivo, rat; details: 40 mg/kg i.p., 3 hours prior to session
Source text: Rats were water restricted, and then trained to lever press for a 10 S/10 E reinforcer solution in 3 overnight sessions. On the 4th day, rats were allowed ad libitum access to water in the home cage, and were transferred to 1-hour daily sessions wherein responses were reinforced with 5 S/10 E on a fixed-ratio 3 (FR3) schedule. Sucrose was phased out of the reinforcer solution over the next 7 days until the solution consisted of 10 E only. Experimental manipulations began after 30 sessions when stable 10 E intake of >0.4 g/kg ethanol was attained.

rats [2] = test: Ethanol reinstatement after extinction, systemic ibogaine; format: in vivo, rat; details: 40 mg/kg i.p., 3 hours before test
Source text: The eight rats used in the operant self-administration study were also used to study ethanolseeking after a period of extinction. Following a period of stable responding for ethanol, rats underwent extinction in which no ethanol was delivered following active lever responses.

DBA mice = test: Conditioned place preference test (CPP); format: in vivo, mouse; details: ibogaine 40 mg/kg i.p. during CPP acquisition, before expression, or both
Protocol: The CPP apparatus (Med Associates) consisted of two visually distinctive conditioning compartments connected by a smaller center compartment. The CPP procedure consisted of three phases: preconditioning (Day 1), conditioning (Days 2-9), and post-conditioning (Day 10). On Day 1, mice were placed into the center compartment and allowed free access to both conditioning compartments for 30 minutes. […] Mice were given access to one conditioning chamber for 5 minutes immediately after injection or 3 h after injection. […] Control subjects received saline in both conditioning chambers. […] Ethanol treatment was followed by placement within one conditioning chamber, alternated with saline treatment and placement into the other conditioning chamber, as described above. On Day 10, animals were tested for CPP by allowing free access to both conditioning compartments for 30 minutes. Photocell counts provided a measure of locomotor activity as well as time spent in each compartment

GDNF [3] = test: GDNF expression in the midbrain after i.p. ibogaine (RT-PCR), mice; format: in vivo, mouse; details: 40 mg/kg i.p., 1, 6 or 12 h post injection
Protocol: (§1) Total RNA was isolated using Trizol reagent and reverse transcribed using Reverse Transcription System kit with the oligo (dT)15 primer at 42ûC for 30 minutes. GDNF, Actin or GPDH expressions were analyzed by RT-PCR. The GDNF primers were based on the coding frame of the human GDNF gene: upstream, 5′-TGCCAGAGGATTATCCTGATCAGTTCG ATG3′ (SEQ ID NO: 1); and downstream, 5′-TTGTCGTACGTTGTCTCAGCTGCATCGCAA-3′ (SEQ ID NO:2). The Actin primers were based on the human Actin gene: upstream, 5′-TCATGAAGTGTGACGTTGACATC-3′ (SEQ ID NO:3); and downstream, 5′-AGAAGCATTTGCGGTGGACGATG-3′ (SEQ ID NO:4). The GPDH primers were based on the rat GPDH gene: upstream, 5′-TGAAGGTCGGTGTCAACGGATTTGGC-3′ (SEQ ID NO:5); and downstream, 5′-CATGTAGGCCATGAGGTCCACCAC-3′ (SEQ ID NO:6). PCR conditions were optimized to specifically ensure that the amplification reactions are within the linear range by testing a range of 25-40 PCR cycles. The optimal numbers of cycles used were: 30 cycles for controls GPDH and actin and 35 cycles for GDNF.
(§2) Male C57B16 mice or Long Evans rats were habituated with 3 saline injections over 3 days followed by i.p. administration of 40 mg/kg ibogaine-HCl. The animals were sacrificed 1, 6 or 12 hours post injection, and brain regions were excised and stored at −80° C. until use for analysis of GDNF expression by RT-PCR.

GDNF [4] = test: GDNF expression in the midbrain after i.p. ibogaine (RT-PCR), rats; format: in vivo, rat; details: 40 mg/kg i.p., 1, 6 or 12 h post injection
Protocol: as §1, §2

GDNF [5] = test: GDNF secretion into medium of SHSY5Y cells (ELISA); format: cell-based, human; details: 10 μM
Source text: GDNF secretion in the medium was detected using GDNF Emax Immunoassay System according to (Balkowiec and Katz, 2000). GDNF concentration was interpolated from the standard curves (linear range of 15.6-1000 pg/ml).

Substance: 12-methoxyibogamine [ibogaine]
- responding at the ethanol-paired lever (rats [1]): decreased
- reinstatement of lever pressing for ethanol (rats [2]): reduced
- rewarding properties of ethanol (ethanol-induced CPP) (DBA mice): not altered
- expression of GDNF in the midbrain (GDNF [3]): increase
- expression of GDNF in the midbrain (GDNF [4]): increase
- GDNF levels in the media (secretion) (GDNF [5]): accumulated in the media in a time-dependent manner
